Laboratory results taken from ChEMBL document CHEMBL1201862, “PubChem BioAssay data set” (2004).
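These data come from cells grown in 96-well plates and exposed to compound for 48 hours at five concentrations. The concentration for 50% growth inhibition is given as GI50.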 The source made the active and inactive calls. Rule as the data show it: active = GI50 up to about 1.1 µM and inactive = higher.

Tests used:
Assay in all cases: NCI-60 cell line screen, 48 h
UACC-257 = system: UACC-257
HOP-62 = system: HOP-62
MDA-MB-435 = system: MDA-MB-435
A498 = system: A498
HT-29 = system: HT-29
NCI-H460 = system: NCI-H460
MDA-N = system: MDA-N
T47D = system: T47D
SF-268 = system: SF-268
RPMI-8226 = system: RPMI-8226
BT-549 = system: BT-549
PC-3 = system: PC-3
NCI/ADR-RES = system: NCI/ADR-RES
DU-145 = system: DU-145
NCI-H522 = system: NCI-H522

Measured: GI50

Oc1ccc(C(=C(Br)c2ccccc2)c2ccc(O)cc2)cc1
inactive: UACC-257 12.6 µM | HOP-62 10.4 µM | MDA-MB-435 1.52 µM | A498 18.3 µM | HT-29 1.91 µM | NCI-H460 11.1 µM | MDA-N 1.83 µM | T47D 10.7 µM | SF-268 4.9 µM | RPMI-8226 4.66 µM | BT-549 4.44 µM | PC-3 7.16 µM | NCI/ADR-RES 3.32 µM | DU-145 13.1 µM | NCI-H522 4.47 µM

O=C1CC2(CCC(O)(c3cccc4ccccc34)C(C(=O)c3cccc4ccccc34)C2)C(=O)c2ccccc2N1 (stereo not drawn)
inactive: UACC-257 > 100 µM | HOP-62 10.5 µM | MDA-MB-435 72.6 µM | A498 > 100 µM | HT-29 7.93 µM | NCI-H460 7.78 µM | MDA-N 18.4 µM | T47D 34.5 µM | SF-268 15.7 µM | BT-549 46.7 µM | PC-3 91 µM | NCI/ADR-RES > 100 µM | DU-145 25.8 µM

COc1cc(C(=O)C2CC3(CCC2(O)c2cc(OC)c(OC)c(OC)c2)CC(=O)Nc2ccccc2C3=O)cc(OC)c1OC (stereo not drawn)
inactive: UACC-257 > 100 µM | HOP-62 > 100 µM | MDA-MB-435 > 100 µM | A498 > 100 µM | HT-29 > 100 µM | NCI-H460 21.5 µM | MDA-N > 100 µM | T47D 36.6 µM | SF-268 > 100 µM | BT-549 > 100 µM | PC-3 42.6 µM | NCI/ADR-RES > 100 µM | DU-145 > 100 µM

C=CC1=C(C)c2cc3[nH]c(c4c5nc(cc6[nH]c(cc1n2)c(C)c6CC)C=C5C(=O)C4C(=O)OC)C(CCC(=O)OC/C=C(\C)CCCC(C)CCCC(C)CCCC(C)C)C3C.C=CC1=C(C)c2cc3[nH]c(c4c5nc(cc6[nH]c(cc1n2)c(C=O)c6CC)C=C5C(=O)C4C(=O)OC)C(CCC(=O)OC/C=C(\C)CCCC(C)CCCC(C)CCCC(C)C)C3C (stereo not drawn)
inactive: UACC-257 > 100 µM | HOP-62 > 100 µM | MDA-MB-435 > 100 µM | A498 > 100 µM | HT-29 > 100 µM | NCI-H460 > 100 µM | MDA-N > 100 µM | T47D > 100 µM | SF-268 > 100 µM | RPMI-8226 > 100 µM | BT-549 76.4 µM | PC-3 > 100 µM | NCI/ADR-RES > 100 µM | DU-145 > 100 µM | NCI-H522 22.6 µM

NCC(=O)N[C@H]1c2ccsc2/C(=N/O)[C@H]1O
inactive: UACC-257 > 100 µM | HOP-62 > 100 µM | MDA-MB-435 > 100 µM | A498 > 100 µM | HT-29 > 100 µM | NCI-H460 > 100 µM | MDA-N > 100 µM | T47D > 100 µM | BT-549 > 100 µM | PC-3 > 100 µM | NCI/ADR-RES > 100 µM | DU-145 > 100 µM

CC1(C)CC(=O)c2c(nc3c4c([nH]c(-c5ccc([N+](=O)[O-])cc5)c24)CC(C)(C)C3)C1
inactive: UACC-257 67 µM | HOP-62 > 100 µM | MDA-MB-435 24.7 µM | A498 4.26 µM | HT-29 11.1 µM | NCI-H460 38.5 µM | MDA-N 33 µM | T47D 26.9 µM | SF-268 50.9 µM | BT-549 34 µM | PC-3 31.7 µM | NCI/ADR-RES 21.5 µM | DU-145 81.8 µM | NCI-H522 48.5 µM

N#Cc1nnn(-c2ccc(Br)cc2)c1O
inactive: UACC-257 > 100 µM | HOP-62 > 100 µM | MDA-MB-435 > 100 µM | A498 > 100 µM | HT-29 > 100 µM | MDA-N 46.9 µM | T47D > 100 µM | SF-268 > 100 µM | RPMI-8226 > 100 µM | BT-549 > 100 µM | PC-3 > 100 µM | NCI/ADR-RES > 100 µM | DU-145 > 100 µM | NCI-H522 > 100 µM

CC(=O)[C@H]1CC[C@@H]2[C@]1(C)CC=C1[C@]23C=C[C@]2(C[C@@H](O)CC[C@]12C)C(C(=O)O)C3C(=O)O (stereo partly drawn)
inactive: UACC-257 > 100 µM | HOP-62 > 100 µM | MDA-MB-435 > 100 µM | A498 > 100 µM | HT-29 > 100 µM | NCI-H460 > 100 µM | MDA-N > 100 µM | T47D > 100 µM | SF-268 > 100 µM | RPMI-8226 > 100 µM | BT-549 > 100 µM | PC-3 > 100 µM | NCI/ADR-RES > 100 µM | DU-145 > 100 µM | NCI-H522 > 100 µM

C[C@]12CC[C@H](O)CC1=CC[C@@H]1[C@@H]2CC[C@]2(C)C(=O)CC[C@@H]12 [PRASTERONE]
inactive: UACC-257 > 100 µM | MDA-MB-435 > 100 µM | HT-29 > 100 µM | MDA-N > 100 µM | T47D > 100 µM | SF-268 > 100 µM | RPMI-8226 > 100 µM | BT-549 > 100 µM | PC-3 > 100 µM | NCI/ADR-RES > 100 µM | DU-145 > 100 µM | NCI-H522 > 100 µM
